The text below walks through data of patent publication US20250170107A1, “IMIDAZOPYRIDINE INHIBITORS OF TYROSINE KINASE” (BridGene Biosciences. Inc., priority 2022, published 2025).

One assay concerns the target T1, FLT3 (Homo sapiens, UniProt P36888).
T1 construct: purchased ThermoFisher PV3182
T1 sequence (P36888 27-993): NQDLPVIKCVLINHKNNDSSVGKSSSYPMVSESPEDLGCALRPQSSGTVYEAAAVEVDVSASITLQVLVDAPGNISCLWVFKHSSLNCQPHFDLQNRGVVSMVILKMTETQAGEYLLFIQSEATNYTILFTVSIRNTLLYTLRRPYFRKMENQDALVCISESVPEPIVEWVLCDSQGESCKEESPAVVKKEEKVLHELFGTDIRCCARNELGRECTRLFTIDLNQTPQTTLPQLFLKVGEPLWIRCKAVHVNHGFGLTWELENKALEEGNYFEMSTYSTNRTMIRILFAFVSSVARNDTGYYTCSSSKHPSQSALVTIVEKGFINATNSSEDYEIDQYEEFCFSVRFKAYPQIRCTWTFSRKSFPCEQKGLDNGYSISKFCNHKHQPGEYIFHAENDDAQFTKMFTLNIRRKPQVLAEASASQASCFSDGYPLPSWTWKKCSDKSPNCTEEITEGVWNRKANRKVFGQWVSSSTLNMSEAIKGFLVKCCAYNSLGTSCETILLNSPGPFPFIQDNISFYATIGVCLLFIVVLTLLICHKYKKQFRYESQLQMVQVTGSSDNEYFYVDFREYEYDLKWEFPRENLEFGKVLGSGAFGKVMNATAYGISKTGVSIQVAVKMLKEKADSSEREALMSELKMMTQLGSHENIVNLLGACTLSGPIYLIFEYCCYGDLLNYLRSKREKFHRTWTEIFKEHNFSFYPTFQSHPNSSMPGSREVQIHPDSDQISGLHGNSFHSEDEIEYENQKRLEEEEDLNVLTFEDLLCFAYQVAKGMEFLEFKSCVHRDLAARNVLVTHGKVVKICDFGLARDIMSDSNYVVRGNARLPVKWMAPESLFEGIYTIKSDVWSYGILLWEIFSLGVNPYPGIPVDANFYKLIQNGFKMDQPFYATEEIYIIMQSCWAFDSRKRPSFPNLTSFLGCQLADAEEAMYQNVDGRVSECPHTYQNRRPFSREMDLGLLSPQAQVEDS
The assay is described as follows: Caliper mobility shift kinase inhibition assay, recombinant FLT3. It counts as biochemical. The conditions noted are these: recombinant FLT-3 0.1 nM, ATP 95 μM, incubation 3 hr, room temperature. On the procedure: Compounds' inhibition of recombinant kinases (FLT3, KIT) was measured using Caliper mobility shift assay, which is based on the difference in capillary electrophoresis mobility of a fluorescent-tagged peptide as a result of a phosphorylation by the kinase under study. Reactions were started by the addition of various concentrations of a compound (originally in DMSO solution) to a kinase solution in assay buffer followed by addition of a mixture of ATP and a fluorescent-tagged peptide substrate in assay buffer. Concentrations of the enzyme, ATP and thepeptide were pre-optimized so that 15% substrate conversion to ensure initial velocity measurements. After incubation for 3 hours at room temperature, the kinase reaction was quenched by the addition of a concentrated EDTA solution before analysis on a LabChip EZ Reader II to yield percentage inhibition by comparing to the DMSO control. Table 2 below summarizes the assay conditions for the characterization of the kinase inhibition properties of the disclosed compounds.

A further assay addresses T2, KIT (Homo sapiens, UniProt P10721).
T2 construct: purchased BPS 40250
The assay is described as follows: Caliper mobility shift kinase inhibition assay, recombinant KIT. It is filed as biochemical. The conditions noted are these: recombinant KIT 0.9 nM, ATP 400 μM, incubation 17 hr (Table 2).

The test system of a further assay is MV4-11. The assay is described as follows: Cell viability assay (CellTiter-Glo), FLT3 cell-based assay. The conditions noted are these: MV4-11 cells, 72 hr at 37° C., 0.1% DMSO. On the procedure:
Cell viability assay was performed based on the following brief procedures. Cells were plated at the density of 5K/well with volume of 180 μL in 96-well white plate and clear bottom plates. 20 μL of veh. or compound was added at proper concentration to the well. The final volume is 200 μL, with final conc. of DMSO=0.1%, 11 points, triplicates. The cells were then treated at 37° C. in the TC incubator for 72 hr. Equal volume (200 μL) of CellTiter-Glo reagent (Promega) was added to the well and protect from light at room temperature for 15 min. The chemiluminescence was measured with EnSight (Perkin Elmer). GraphPad Prism non-linear regression, Log[inhibitor] response with four parameters were used to calculate GI50.

T2 sequence (P10721 26-976): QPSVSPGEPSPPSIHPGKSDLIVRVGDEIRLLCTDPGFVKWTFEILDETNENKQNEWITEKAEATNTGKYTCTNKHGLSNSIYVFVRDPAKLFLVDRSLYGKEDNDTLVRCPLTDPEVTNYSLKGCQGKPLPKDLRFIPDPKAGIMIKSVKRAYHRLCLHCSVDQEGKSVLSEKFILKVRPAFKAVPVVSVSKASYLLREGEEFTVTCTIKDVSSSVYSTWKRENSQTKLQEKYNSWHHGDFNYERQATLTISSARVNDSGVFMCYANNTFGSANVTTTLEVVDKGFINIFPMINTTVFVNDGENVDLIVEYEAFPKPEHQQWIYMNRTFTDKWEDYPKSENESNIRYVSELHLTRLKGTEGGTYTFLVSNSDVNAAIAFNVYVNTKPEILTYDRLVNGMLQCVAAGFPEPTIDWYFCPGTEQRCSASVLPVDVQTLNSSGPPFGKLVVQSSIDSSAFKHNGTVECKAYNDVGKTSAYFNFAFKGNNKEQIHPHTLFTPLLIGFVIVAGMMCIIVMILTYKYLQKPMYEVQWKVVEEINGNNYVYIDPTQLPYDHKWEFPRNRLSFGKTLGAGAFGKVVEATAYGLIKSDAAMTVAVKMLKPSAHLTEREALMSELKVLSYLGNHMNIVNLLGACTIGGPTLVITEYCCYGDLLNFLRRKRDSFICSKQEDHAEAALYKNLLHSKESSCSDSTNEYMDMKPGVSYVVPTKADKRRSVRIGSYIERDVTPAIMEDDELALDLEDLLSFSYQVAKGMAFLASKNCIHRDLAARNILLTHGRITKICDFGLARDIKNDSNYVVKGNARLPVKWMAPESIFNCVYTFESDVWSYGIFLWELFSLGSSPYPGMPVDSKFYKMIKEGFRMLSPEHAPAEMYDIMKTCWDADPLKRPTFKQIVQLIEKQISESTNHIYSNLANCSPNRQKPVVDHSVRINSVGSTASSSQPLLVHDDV

As for `CN(C)C/C=C/C(=O)N1CC[C@H](O)[C@H]1C(=O)NCCn1cnc2cnc(Nc3ncc(-c4ncccc4F)s3)cc21` [Example 26, (2S,3S)-1-[(E)-4-(dimethylamino)but-2-enoyl]-N-[2-[6-[[5-(3-fluoro-2-pyridyl)thiazol-2-yl]amino]imidazo[4,5-c]pyridin-1-yl]ethyl]-3-hydroxy-pyrrolidine-2-carboxamide], the IC50 on FLT3 and on KIT was under 1 nM throughout. Further, in the assay on MV4-11 (Homo sapiens), the GI50 (commonly the concentration that inhibits growth by half) is 10 to 100 nM.
For `C=CC(=O)N1C[C@H](O)C[C@H]1C(=O)NCCn1cnc2cnc(Nc3ncc(-c4ccc(F)cc4)s3)cc21` [Example 13, (2S,4R)-N-[2-[6-[[5-(4-fluorophenyl)thiazol-2-yl]amino]imidazo[4,5-c]pyridin-1-yl]ethyl]-4-hydroxy-1-prop-2-enoylpyrrolidine-2-carboxamide], the IC50 on FLT3 and on KIT was under 1 nM in each case. In the assay on MV4-11 (Homo sapiens), this compound had a GI50 of 10 to 100 nM.
Consider `C=CC(=O)N1CCOC[C@H]1C(=O)NCCn1cnc2cnc(Nc3ncc(-c4ncccc4F)s3)cc21` [Example 12, (3S)-N-[2-[6-[[5-(3-fluoro-2-pyridyl)thiazol-2-yl]amino]imidazo[4,5-c]pyridin-1-yl]ethyl]-4-prop-2-enoyl-morpholine-3-carboxamide], for which the IC50 – broadly, the concentration that gives 50% inhibition – is under 1 nM on FLT3 and 10 to 100 nM on KIT. Besides, the GI50 in the assay with MV4-11 (Homo sapiens) was under 10 nM.
As to `C=CC(=O)N1CCOC[C@H]1C(=O)NCCn1cnc2cnc(Nc3ncc(-c4ncncc4F)s3)cc21` [Example 22, (3S)-N-[2-[6-[[5-(5-fluoropyrimidin-4-yl)thiazol-2-yl]amino]imidazo[4,5-c]pyridin-1-yl]ethyl]-4-prop-2-enoyl-morpholine-3-carboxamide], the IC50 at FLT3 and at KIT was under 1 nM throughout. This compound also came in with a GI50 with MV4-11 (Homo sapiens) of under 10 nM.
`C=CC(=O)N1CC[C@H]1C(=O)NCCn1cnc2cnc(Nc3ncc(-c4ncccc4F)s3)cc21` [Example 7, (2S)-N-[2-[6-[[5-(3-fluoro-2-pyridyl)thiazol-2-yl]amino]imidazo [4,5-c]pyridin-1-yl]ethyl]-1-prop-2-enoyl-azetidine-2-carboxamide]: the IC50 on FLT3 and at KIT was under 1 nM each time.
With `C=CC(=O)N1CCC[C@H]1C(=O)NCCn1cnc2cnc(Nc3ncc(-c4ccc(F)cc4)s3)cc21` [Example 5], the IC50 at FLT3 and on KIT was under 1 nM in each case. In the assay on MV4-11 (Homo sapiens), this compound gave a GI50 of under 10 nM.
In the case of `C=CC(=O)N1CCC[C@H]1C(=O)NCCn1cnc2cnc(Nc3ncc(-c4ncccc4F)s3)cc21` [Example 9, (2S)-N-[2-[6-[[5-(3-fluoro-2-pyridyl)thiazol-2-yl]amino]imidazo[4,5-c]pyridin-1-yl]ethyl]-1-prop-2-enoyl-pyrrolidine-2-carboxamide], the IC50 on FLT3 and at KIT was under 1 nM each time. Further, the GI50 in the assay on MV4-11 (Homo sapiens) was under 10 nM.
For `C=CC(=O)N1CCOC[C@H]1C(=O)NCCn1cnc2cnc(Nc3ncc(-c4ccncc4)s3)cc21` [Example 1, (3S)-4-prop-2-enoyl-N-[2-[6-[[5-(4-pyridyl)thiazol-2-yl]amino]imidazo[4,5-c]pyridin-1-yl]ethyl]morpholine-3-carboxamide], the IC50 on FLT3 is under 1 nM; on KIT it was 1 to 10 nM. Besides, the GI50 with MV4-11 (Homo sapiens) is 10 to 100 nM.
The corresponding values for `C=C(F)C(=O)N1CCC[C@H]1C(=O)NCCn1cnc2cnc(Nc3ncc(-c4ccc(F)cc4)s3)cc21` [Example 4] are 1 to 10 nM, 1 to 10 nM and under 10 nM.
On to `CN(C)C/C=C/C(=O)N1CCOC[C@H]1C(=O)NCCn1cnc2cnc(Nc3ncc(-c4ncccc4F)s3)cc21` [Example 17, (3S)-4-[(E)-4-(dimethylamino)but-2-enoyl]-N-[2-[6-[[5-(3-fluoro-2-pyridyl)thiazol-2-yl]amino]imidazo[4,5-c]pyridin-1-yl]ethyl]morpholine-3-carboxamide], for which the IC50 at FLT3 and at KIT was under 1 nM each time.
As for “(3S)-4-[(E)-4-(dimethylamino)but-2-enoyl]-N-[2-[6-[[5-(5-fluoropyrimidin-4-yl)thiazol-2-yl]amino]imidazo[4,5-c]pyridin-1-yl]ethyl]morpholine-3-carboxamide [Example 23]”, the concentration for half-maximal inhibition (IC50) at FLT3 and on KIT was under 1 nM in each case. In the assay on MV4-11, this compound yielded a GI50 of 10 to 100 nM.
Take `CN(C)C/C=C/C(=O)N1C[C@H](O)C[C@H]1C(=O)NCCn1cnc2cnc(Nc3ncc(-c4ncccc4F)s3)cc21` [Example 20, (2S,4R)-1-[(E)-4-(dimethylamino)but-2-enoyl]-N-[2-[6-[[5-(3-fluoro-2-pyridyl)thiazol-2-yl]amino]imidazo[4,5-c]pyridin-1-yl]ethyl]-4-hydroxy-pyrrolidine-2-carboxamide]: the IC50 at FLT3 and at KIT was under 1 nM in each case.
In the case of `C=C(F)C(=O)N1CCC[C@H]1C(=O)NCCn1cnc2cnc(Nc3ncc(-c4ncccc4F)s3)cc21` [Example 10], the IC50 at FLT3 was in the range of 1 to 10 nM; at KIT, 10 to 100 nM. For the same compound, the GI50 in the assay with MV4-11 (Homo sapiens) was under 10 nM.
As to `C=CC(=O)N1C[C@H](O)C[C@H]1C(=O)NCCn1cnc2cnc(Nc3ncc(-c4ncncc4F)s3)cc21` [Example 21, (2S,4R)-N-[2-[6-[[5-(5-fluoropyrimidin-4-yl)thiazol-2-yl]amino]imidazo[4,5-c]pyridin-1-yl]ethyl]-4-hydroxy-1-prop-2-enoyl-pyrrolidine-2-carboxamide], the figures for the IC50 at FLT3 and on KIT were 1 to 10 nM and 10 to 100 nM, respectively. For the same compound, in the assay with MV4-11 (Homo sapiens), the GI50 was in the range of 10 to 100 nM.
In the case of `C=CC(=O)N1C[C@H](O)C[C@H]1C(=O)NCCn1cnc2cnc(Nc3ncc(-c4ncccc4F)s3)cc21` [Example 18, (2S,4R)-N-[2-[6-[[5-(3-fluoro-2-pyridyl)thiazol-2-yl]amino]imidazo[4,5-c]pyridin-1-yl]ethyl]-4-hydroxy-1-prop-2-enoyl-pyrrolidine-2-carboxamide], the IC50 on FLT3 is under 1 nM; on KIT, 1 to 10 nM.
Taken in the same sequence, the figures for `C=C(F)C(=O)N1C[C@H](O)C[C@H]1C(=O)NCCn1cnc2cnc(Nc3ncc(-c4ncccc4F)s3)cc21` [Example 19, (2S,4R)-1-(2-fluoroprop-2-enoyl)-N-[2-[6-[[5-(3-fluoro-2-pyridyl)thiazol-2-yl]amino]imidazo[4,5-c]pyridin-1-yl]ethyl]-4-hydroxy-pyrrolidine-2-carboxamide] were 1 to 10 nM and 10 to 100 nM.
`C=C(F)C(=O)N1CCOC[C@H]1C(=O)NCCn1cnc2cnc(Nc3ncc(-c4ncccc4F)s3)cc21` [Example 16, (3S)-4-(2-fluoroprop-2-enoyl)-N-[2-[6-[[5-(3-fluoro-2-pyridyl)thiazol-2-yl]amino]imidazo[4,5-c]pyridin-1-yl]ethyl]morpholine-3-carboxamide]: the IC50 on FLT3 and on KIT was 1 to 10 nM throughout.
In the assay on MV4-11 (Homo sapiens), `C=CC(=O)N1CCOC[C@H]1C(=O)NCCn1cnc2cnc(Nc3ncc(-c4ccc(F)cc4)s3)cc21` [Example 6, (3S)-N-[2-[6-[[5-(4-fluorophenyl)thiazol-2-yl]amino]imidazo[4,5-c]pyridin-1-yl]ethyl]-4-prop-2-enoyl-morpholine-3-carboxamide] yielded a GI50 of under 10 nM.
